Measurements taken from US20220081412A1, “QUINOLINYL-PYRAZINE-CARBOXAMIDE COMPOUNDS AND USES THEREOF” (The Regents of the University of Michigan, priority 2018, published 2022).

Tested on: NCI60 cell lines
Test: NCI60 cell line panel
Format: cell-based, human
Procedure: The Developmental Therapeutics Program (DTP) of NCI has evaluated more than 100,000 pure compounds and more than 34,000 crude extracts against the panel of human tumor cell lines. The resultant data are analyzed using a program called COMPARE, that rank the entire database of tested compounds in the order of the similarity of the responses. […] Thus, the NCI60 databases is highly useful to the cancer research community. Further experiments were conducted that tested some of the active compounds in a panel of NCI60 cell line to relate our compounds with some known inhibitors to have an idea of possible mechanism of action.
In order to understand the selectivity of these compounds in different cancer types, some of them were tested against a panel of 60 cell lines (Table XXXIX).

[1] = Non-Small Cell Lung Cancer, A549/ATCC
[2] = Non-Small Cell Lung Cancer, EKVX
[3] = Non-Small Cell Lung Cancer, HOP-62
[4] = Non-Small Cell Lung Cancer, HOP-92
[5] = Non-Small Cell Lung Cancer, NCI-H23
[6] = Non-Small Cell Lung Cancer, NCI-H226
[7] = Non-Small Cell Lung Cancer, NCI-H322M
[8] = Non-Small Cell Lung Cancer, NCI-H460
[9] = Non-Small Cell Lung Cancer, NCI-H522

CCN(CC)CCCC(C)Nc1cnc(C(=O)Nc2cccc3ccc(OC)nc23)cn1 (stereo not shown) [J11, 5-((5-(diethylamino)pentan-2-yl)amino)-N-(2-methoxyquinolin-8-yl)pyrazine-2-carboxamide]
GIPRCNT: % Growth inhibition (Breast Cancer, BT-549): 83.22% | GIPRCNT: % Growth inhibition (Breast Cancer, HS 578T): 69.51% | GIPRCNT: % Growth inhibition (Breast Cancer, MCF7): 20.06% | GIPRCNT: % Growth inhibition (Breast Cancer, MDA-MB-231/ATCC): 71.85% | GIPRCNT: % Growth inhibition (Breast Cancer, MDA-MB-468): 79.15% | GIPRCNT: % Growth inhibition (Breast Cancer, T-47D): 83.88% | GIPRCNT: % Growth inhibition (CNS Cancer, SF-268): 63.03% | GIPRCNT: % Growth inhibition (CNS Cancer, SF-295): 100.8191% | GIPRCNT: % Growth inhibition (CNS Cancer, SF-539): 0.4567% | GIPRCNT: % Growth inhibition (CNS Cancer, SNB-19): 94.85% | GIPRCNT: % Growth inhibition (CNS Cancer, SNB-75): 75.89% | GIPRCNT: % Growth inhibition (CNS Cancer, U251): 56.1223% | GIPRCNT: % Growth inhibition (Colon Cancer, COLO 205): 71.37% | GIPRCNT: % Growth inhibition (Colon Cancer, HCC-2998): 90.92% | GIPRCNT: % Growth inhibition (Colon Cancer, HCT-15): −25.625% | GIPRCNT: % Growth inhibition (Colon Cancer, HCT-116): −36.0085% | GIPRCNT: % Growth inhibition (Colon Cancer, HT29): −47.1759% | GIPRCNT: % Growth inhibition (Colon Cancer, KM12): 36.32% | GIPRCNT: % Growth inhibition (Colon Cancer, SW-620): 2.118% | GIPRCNT: % Growth inhibition (Leukemia, CCRF-CEM): −7.649% | GIPRCNT: % Growth inhibition (Leukemia, HL-60(TB)): 72.3913% | GIPRCNT: % Growth inhibition (Leukemia, K-562): −57.0747% | GIPRCNT: % Growth inhibition (Leukemia, MOLT-4): 53.43% | GIPRCNT: % Growth inhibition (Leukemia, RPMI-8226): 23.8% | GIPRCNT: % Growth inhibition (Leukemia, SR): −5.71% | GIPRCNT: % Growth inhibition (Melanoma, LOX IMVI): −89.8952% | GIPRCNT: % Growth inhibition (Melanoma, M14): −75.6475% | GIPRCNT: % Growth inhibition (Melanoma, MALME-3M): −69.7804% | GIPRCNT: % Growth inhibition (Melanoma, MDA-MB-435): −58.2282% | GIPRCNT: % Growth inhibition (Melanoma, SK-MEL-2): 70.47% | GIPRCNT: % Growth inhibition (Melanoma, SK-MEL-5): 5.402% | GIPRCNT: % Growth inhibition (Melanoma, UACC-62): −57.758% | GIPRCNT: % Growth inhibition (Melanoma, UACC-257): −39.0086% | GIPRCNT: % Growth inhibition [1]: 81.18% | GIPRCNT: % Growth inhibition [2]: 104.0141% | GIPRCNT: % Growth inhibition [3]: 94.18% | GIPRCNT: % Growth inhibition [4]: 49.4978% | GIPRCNT: % Growth inhibition [5]: 96.1% | GIPRCNT: % Growth inhibition [6]: 61.44% | GIPRCNT: % Growth inhibition [7]: 75.47% | GIPRCNT: % Growth inhibition [8]: 1.048% | GIPRCNT: % Growth inhibition [9]: 5.069% | GIPRCNT: % Growth inhibition (Ovarian Cancer, IGROV1): 78.33% | GIPRCNT: % Growth inhibition (Ovarian Cancer, NCI/ADR-RES): 76.12% | GIPRCNT: % Growth inhibition (Ovarian Cancer, OVCAR-3): −30.7372% | GIPRCNT: % Growth inhibition (Ovarian Cancer, OVCAR-4): 98.13% | GIPRCNT: % Growth inhibition (Ovarian Cancer, OVCAR-5): 91.29% | GIPRCNT: % Growth inhibition (Ovarian Cancer, OVCAR-8): 68.24% | GIPRCNT: % Growth inhibition (Ovarian Cancer, SK-OV-3): 86.95% | GIPRCNT: % Growth inhibition (Prostate Cancer, DU-145): 78.79% | GIPRCNT: % Growth inhibition (Prostate Cancer, PC-3): 69.52% | GIPRCNT: % Growth inhibition (Renal Cancer, 786-0): 73.41% | GIPRCNT: % Growth inhibition (Renal Cancer, A498): 46.17% | GIPRCNT: % Growth inhibition (Renal Cancer, ACHN): −86.4619% | GIPRCNT: % Growth inhibition (Renal Cancer, CAKI-1): 94.69% | GIPRCNT: % Growth inhibition (Renal Cancer, RXF 393): 45.96% | GIPRCNT: % Growth inhibition (Renal Cancer, SN12C): 78.47% | GIPRCNT: % Growth inhibition (Renal Cancer, TK-10): 90.98% | GIPRCNT: % Growth inhibition (Renal Cancer, UO-31): 69.07%

CCN(CC)CCCC(C)Nc1cnc(C(=O)Nc2cc(F)cc3cccnc23)cn1 (stereo not shown) [J17, 5-((5-(diethylamino)pentan-2-yl)amino)-N-(6-fluoroquinolin-8-yl)pyrazine-2-carboxamide]
GIPRCNT: % Growth inhibition (Breast Cancer, BT-549): 77.38% | GIPRCNT: % Growth inhibition (Breast Cancer, HS 578T): 69.28% | GIPRCNT: % Growth inhibition (Breast Cancer, MCF7): 2.311% | GIPRCNT: % Growth inhibition (Breast Cancer, MDA-MB-231/ATCC): 59.42% | GIPRCNT: % Growth inhibition (Breast Cancer, MDA-MB-468): 6.238% | GIPRCNT: % Growth inhibition (Breast Cancer, T-47D): 14.34% | GIPRCNT: % Growth inhibition (CNS Cancer, SF-268): 51.93% | GIPRCNT: % Growth inhibition (CNS Cancer, SF-295): 71.23% | GIPRCNT: % Growth inhibition (CNS Cancer, SF-539): 83.12% | GIPRCNT: % Growth inhibition (CNS Cancer, SNB-19): 83.09% | GIPRCNT: % Growth inhibition (CNS Cancer, SNB-75): 65.6595% | GIPRCNT: % Growth inhibition (CNS Cancer, U251): 50.2764% | GIPRCNT: % Growth inhibition (Colon Cancer, COLO 205): 3.108% | GIPRCNT: % Growth inhibition (Colon Cancer, HCC-2998): 66.69% | GIPRCNT: % Growth inhibition (Colon Cancer, HCT-15): 24.5% | GIPRCNT: % Growth inhibition (Colon Cancer, HCT-116): 9.52% | GIPRCNT: % Growth inhibition (Colon Cancer, HT29): 11.8% | GIPRCNT: % Growth inhibition (Colon Cancer, KM12): 75.34% | GIPRCNT: % Growth inhibition (Colon Cancer, SW-620): 24.3% | GIPRCNT: % Growth inhibition (Leukemia, CCRF-CEM): 19.66% | GIPRCNT: % Growth inhibition (Leukemia, HL-60(TB)): 85.54% | GIPRCNT: % Growth inhibition (Leukemia, K-562): 3.946% | GIPRCNT: % Growth inhibition (Leukemia, MOLT-4): 21.9615% | GIPRCNT: % Growth inhibition (Leukemia, RPMI-8226): 75.09% | GIPRCNT: % Growth inhibition (Leukemia, SR): 2.839% | GIPRCNT: % Growth inhibition (Melanoma, LOX IMVI): 33.27% | GIPRCNT: % Growth inhibition (Melanoma, M14): 21.9% | GIPRCNT: % Growth inhibition (Melanoma, MALME-3M): −8.343% | GIPRCNT: % Growth inhibition (Melanoma, MDA-MB-435): 25.54% | GIPRCNT: % Growth inhibition (Melanoma, SK-MEL-2): 96.72% | GIPRCNT: % Growth inhibition (Melanoma, SK-MEL-5): 69.98% | GIPRCNT: % Growth inhibition (Melanoma, UACC-62): 0.9972% | GIPRCNT: % Growth inhibition (Melanoma, UACC-257): 76.77% | GIPRCNT: % Growth inhibition [1]: 58.01% | GIPRCNT: % Growth inhibition [2]: 73.3% | GIPRCNT: % Growth inhibition [3]: 64.08% | GIPRCNT: % Growth inhibition [4]: 37.52% | GIPRCNT: % Growth inhibition [5]: 81.37% | GIPRCNT: % Growth inhibition [6]: 85.09% | GIPRCNT: % Growth inhibition [7]: 63.8% | GIPRCNT: % Growth inhibition [8]: 69.55% | GIPRCNT: % Growth inhibition [9]: 52.69% | GIPRCNT: % Growth inhibition (Ovarian Cancer, IGROV1): 41.74% | GIPRCNT: % Growth inhibition (Ovarian Cancer, NCI/ADR-RES): 66.76% | GIPRCNT: % Growth inhibition (Ovarian Cancer, OVCAR-3): 5.413% | GIPRCNT: % Growth inhibition (Ovarian Cancer, OVCAR-4): 12.24% | GIPRCNT: % Growth inhibition (Ovarian Cancer, OVCAR-5): 77.12% | GIPRCNT: % Growth inhibition (Ovarian Cancer, OVCAR-8): 60.52% | GIPRCNT: % Growth inhibition (Ovarian Cancer, SK-OV-3): 98.32% | GIPRCNT: % Growth inhibition (Prostate Cancer, DU-145): 63.3% | GIPRCNT: % Growth inhibition (Prostate Cancer, PC-3): 60.96% | GIPRCNT: % Growth inhibition (Renal Cancer, 786-0): 68.3555% | GIPRCNT: % Growth inhibition (Renal Cancer, A498): 62.97% | GIPRCNT: % Growth inhibition (Renal Cancer, ACHN): 36.59% | GIPRCNT: % Growth inhibition (Renal Cancer, CAKI-1): 36.66% | GIPRCNT: % Growth inhibition (Renal Cancer, RXF 393): 33.77% | GIPRCNT: % Growth inhibition (Renal Cancer, SN12C): 54.47% | GIPRCNT: % Growth inhibition (Renal Cancer, TK-10): 63.68% | GIPRCNT: % Growth inhibition (Renal Cancer, UO-31): 29.1%
